# Laboratory results: patent publication US20150157783A1, “METHOD TO SELECTIVELY BIND AND EXTRACT PHOSPHATE” (priority 2013, published 2015)
# Key:
# [1] = UV-Vis titration, 1:1 binding of dihydrogen phosphate (Bu4N+ salt) in aqueous DMSO; conditions: for Binding constant (1:1) to H2PO4^−: 25% aqueous DMSO (v/v)
# Method: (§1) Their interactions with anion salts were investigated in various aqueous dimethylsulfoxide (DMSO) mixtures.
# (§2) Dilute non-aggregating solutions of a receptor S were titrated with a given anion X^− via a solution of its tetrabutylammonium salt and were monitored by UV-VIS spectrometery. UV absorption spectra (250-600 nm) were recorded three times for each solution and average values for each point were used; all of the spectra were background corrected by subtracting the absorption of the solvent. The wavelength with the maximum change in the concentration corrected absorption (Acor=A·C0/C, where C and C0 are the current and the initial receptor concentrations) was determined and then used for further analysis. Absorptions were plotted versus anion concentrations and the binding constants were determined by an iterative non-linear least squares curve fitting routine implemented in Excel using the equations below. Observed and calculated absorptions are given for each titration in the corresponding Tables and Figures.
# (§3) K: binding constant for 1:1 complex formation
# (§4) [S]:free receptor concentration
# (§5) [S]0:total receptor concentration
# (§6) [SX]:bound receptor concentration
# (§7) [X]0:total anion concentration
# (§8) A: absorption of the solution
# (§9) A0:absorption of the initial solution (no anion added)
# (§10) Amax:absorption of the solution if all the receptor was bound (infinite excess of anion at the initial receptor concentration)
# (§11) In cases where there is a large excess of the anion, [X] about equals [X]0, and the plot of ΔAcor/[X] versus ΔAcor gives a straight line where the slope of the linear least squares fit of the data is the binding constant (K) and the intercept is K·ΔAmax:
# (§12) with ΔAcor=(A−A0)·C0/C, where C and C0 are the current and the initial receptor concentrations; ΔAmax=Amax−A0.
# [2] = UV-Vis titration, 1:1 binding of acetate (Bu4N+ salt) in aqueous DMSO; conditions: for Binding constant (1:1) to OAc^−: 25% aqueous DMSO (v/v)
# Method: as §1, §2, §3, §4, §5, §6, §7, §8, §9, §10, §11, §12
# [3] = Solubility of receptor (qualitative)
# [4] = UV-Vis titration, 1:1 binding of chloride (Bu4N+ salt) in aqueous DMSO; conditions: 25% aqueous DMSO (v/v)
# Method: as §1, §2, §3, §4, §5, §6, §7, §8
# A0:absorption of the initial solution (no anion added) […]
SMILES,K1-bis/K1-mono for dihydrogen phosphate ([1]; 25% aqueous DMSO),Binding constant (1:1) to H2PO4^− [1],Binding constant (1:1) to OAc^− [2],solubility [3],"Binding constant K of 1:1 adduct with H2PO4^− ([1]; 0.5% DMSO-H2O mixture, 0-1 equivalents of anion)",association constant relative to the statistical value (36 M^−1) expected for one-arm binding of H2PO4^− ([1]; 25% aqueous DMSO),acetate binding strength relative to 1-mono ([2]; 25% aqueous DMSO),Binding constant (1:1) to Cl^− [4]
"O=[N+]([O-])c1ccc(NC(=S)Nc2ccccc2-c2cccc(-c3ccccc3NC(=S)Nc3ccc([N+](=O)[O-])cc3)c2)cc1 [1-bis, 1,3-bis[2-(3-(4—Nitrophenyl)thioureido)phenyl]benzene]",about 2,28 M⁻¹,–,–,–,–,–,–
"O=[N+]([O-])c1ccc(NC(=S)Nc2ccccc2)cc1 [1-mono, 1-(4—Nitrophenyl)-3-phenylthiourea]",–,12 M⁻¹,12 M⁻¹,–,–,–,–,–
"O=[N+]([O-])c1ccc(NC(=S)Nc2ccccc2-c2cc(-c3ccccc3NC(=S)Nc3ccc([N+](=O)[O-])cc3)cc(-c3ccccc3NC(=S)Nc3ccc([N+](=O)[O-])cc3)c2)cc1 [1-tris, 1,3,5-tris[2-(3-(4—Nitrophenyl)thioureido)phenyl]benzene]",–,4000 M⁻¹,35 M⁻¹,low solubility,> 5e+06 M⁻¹,more than 100 fold,three times more strongly,1 M⁻¹
"FC(F)(F)c1cc(NC(=S)Nc2ccccc2-c2cc(-c3ccccc3NC(=S)Nc3cc(C(F)(F)F)cc(C(F)(F)F)c3)cc(-c3ccccc3NC(=S)Nc3cc(C(F)(F)F)cc(C(F)(F)F)c3)c2)cc(C(F)(F)F)c1 [2-tris, 1,3,5-tris[2-(3-(3,5-Trifluoromethylphenyl)thioureido)phenyl]benzene]",–,10000 M⁻¹,–,more soluble,–,–,–,–
